Data taken from patent publication US11098032B2, “Pyran dervatives as CYP11A1 (cytochrome P450 monooxygenase 11A1) inhibitors” (ORION CORPORATION, priority 2016, dated 2021).
Counter-ions that a name gives are not always drawn.

Biological target: T1, CYP11A1 (Homo sapiens, UniProt P05108)
T1 construct: human H295R adrenocortical carcinoma cell line was used as source of enzyme; endogenous in cells; host or cells: H295R human adrenocortical carcinoma cells
T1 sequence (P05108 40-521): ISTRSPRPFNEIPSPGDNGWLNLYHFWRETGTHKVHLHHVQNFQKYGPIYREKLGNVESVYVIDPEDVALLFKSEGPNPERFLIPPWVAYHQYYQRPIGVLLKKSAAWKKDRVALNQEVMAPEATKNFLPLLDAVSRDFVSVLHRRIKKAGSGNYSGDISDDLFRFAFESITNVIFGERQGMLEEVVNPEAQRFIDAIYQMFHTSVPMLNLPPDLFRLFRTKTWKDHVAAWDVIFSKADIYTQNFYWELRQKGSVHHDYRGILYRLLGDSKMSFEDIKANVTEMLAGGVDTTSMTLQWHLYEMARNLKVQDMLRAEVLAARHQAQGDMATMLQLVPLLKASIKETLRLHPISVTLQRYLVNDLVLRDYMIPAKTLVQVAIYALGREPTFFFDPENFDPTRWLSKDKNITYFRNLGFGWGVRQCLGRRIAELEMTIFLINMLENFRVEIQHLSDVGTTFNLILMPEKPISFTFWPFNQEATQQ
Test: CYP11A1 inhibition: modified isocaproic acid release assay (IARA) in H295R cells
Type: cell-based
Settings: human H295R adrenocortical carcinoma cells treated three days, 3 nM [24,25-3H]-labelled cholesterol, 1% DMSO, 10 concentrations in duplicates; read-out: IC50 of the test compounds on CYP11A1 inhibition
Description: The ability of the test compounds to inhibit conversion of cholesterole to pregnenolone and isocaproic acid was measured by modification of isocaproic acid release assay (IARA) described by Ruangwises et. al. (Biology of Reproduction 1991; 45(1):143-50) except that human H295R adrenocortical carcinoma cell line was used as source of enzyme and extraction was done with dextran-coated charcoal suspension (Isomaa, V. et al., Endocrinology 1982; 111(3):833-843). […] To determine the half maximal inhibitory concentration (IC50) of the test compounds on CYP11A1 inhibition, the cells were treated for three days with increasing concentrations of the test compounds in the presence of 3 nM [24,25-3H]-labelled cholesterol (American Radiolabelled Chemicals). The final DMSO concentration was 1%. Cell culture medium was extracted with dextran-coated charcoal suspension and the radiolabelled isocaproic acid was determined by mixing 100 μl of supernatant fraction in 200 μl of scintillation fluid (OptiPhase SuperMix, Perkin Elmer). Radioactivity was measured using a Microbeta scintillation counter (1450 MicroBeta Trilux, Wallac). All the test compounds were studied at 10 concentrations in duplicates.

**Q.** Which IC50 does the source give for `O=c1cc(CN2Cc3ccccc3C2)occ1OC[C@H]1C=C[C@@H](NS(=O)(=O)C2CC2)C1` (relative stereo) [Compound 274, Cis-N-(4-(((6-(isoindolin-2-ylmethyl)-4-oxo-4H-pyran-3-yl)oxy)methyl)cyclo-pent-2-en-1-yl)cyclopropanesulfonamide, Formate] here?
**A.** 301 to 2000 nM

**Q.** How did the IC50 turn out when `CC(C)CC(=O)N[C@@H]1C=C[C@H](COc2coc(CN3Cc4ccccc4C3)cc2=O)C1` (relative stereo) [Compound 275, Cis-N-(4-(((6-(isoindolin-2-ylmethyl)-4-oxo-4H-pyran-3-yl)oxy)methyl)cyclo-pent-2-en-1-yl)-3-methylbutanamide, Formate] was run?
**A.** 301 to 2000 nM

**Q.** For `CS(=O)(=O)N[C@@H]1CC[C@H](COc2coc(CN3Cc4ccccc4C3)cc2=O)C1` (relative stereo) [Compound 276, Cis-N-(3-(((6-(Isoindolin-2-ylmethyl)-4-oxo-4H-pyran-3-yl)oxy)methyl)-cyclo-pentyl)-methanesulfonamide], which IC50 is on record?
**A.** 150 to 300 nM

**Q.** `CS(=O)(=O)c1ccc(COc2coc(CN3Cc4ccccc4C3)cc2=O)cc1` [Compound 1, 2-(Isoindolin-2-ylmethyl)-5-((4-(methylsulfonyl)benzyl)oxy)-4H-pyran-4-one] was tested. Which IC50 did it give?
**A.** 150 to 300 nM

**Q.** For `COC(=O)/C=C/c1ccc(COc2coc(CN3Cc4ccccc4C3)cc2=O)cc1` [Compound 2, Methyl (E)-3-(4-(((6-(isoindolin-2-ylmethyl)-4-oxo-4H-pyran-3-yl)oxy)-methyl)phenyl)acrylate], which IC50 is on record?
**A.** < 150 nM

**Q.** For `O=c1cc(CN2Cc3ccccc3C2)occ1OCc1ccc(SC(F)(F)F)cc1` [Compound 3, 2-(Isoindolin-2-ylmethyl)-5-((4-((trifluoromethyl)thio)benzyl)oxy)-4H-pyran-4-one], which IC50 is on record?
**A.** 301 to 2000 nM

**Q.** `CCN(CC)S(=O)(=O)c1ccc(COc2coc(CN3Cc4ccccc4C3)cc2=O)cc1` [Compound 4, N,N-Diethyl-4-(((6-(isoindolin-2-ylmethyl)-4-oxo-4H-pyran-3-yl)oxy)methyl)-benzenesulfonamide] was tested. Which IC50 did it give?
**A.** 150 to 300 nM

**Q.** With `O=c1cc(CN2Cc3ccccc3C2)occ1OCc1ccc(S(=O)(=O)N2CCCC2)cc1` [Compound 5, 2-(Isoindolin-2-ylmethyl)-5-((4-(pyrrolidin-1-ylsulfonyl)benzyl)oxy)-4H-pyran-4-one] as the compound, how does the IC50 read?
**A.** < 150 nM

**Q.** Which IC50 does the source give for `O=c1cc(CN2Cc3ccccc3C2)occ1OCc1ccc(S(=O)(=O)N2CCOCC2)cc1` [Compound 6, 2-(Isoindolin-2-ylmethyl)-5-((4-(morpholinosulfonyl)benzyl)oxy)-4H-pyran-4-one] here?
**A.** 150 to 300 nM

**Q.** With `O=c1cc(CN2Cc3ccccc3C2)occ1OCc1ccc(S(=O)(=O)N2CCCCC2)cc1` [Compound 7, 2-(Isoindolin-2-ylmethyl)-5-((4-(piperidin-1-ylsulfonyl)benzyl)oxy)-4H-pyran-4-one] as the compound, how does the IC50 read?
**A.** 150 to 300 nM

**Q.** For `CNS(=O)(=O)c1ccc(COc2coc(CN3Cc4ccccc4C3)cc2=O)cc1` [Compound 8, 4-(((6-(Isoindolin-2-ylmethyl)-4-oxo-4H-pyran-3-yl)oxy)methyl)-N-methylbenzenesulfonamide], which IC50 is on record?
**A.** < 150 nM

**Q.** With `O=c1cc(CN2Cc3ccccc3C2)occ1OCc1ccc(S(=O)(=O)N2CCC2)cc1` [Compound 9, 5-((4-(Azetidin-1-ylsulfonyl)benzyl)oxy)-2-(isoindolin-2-ylmethyl)-4H-pyran-4-one] as the compound, how does the IC50 read?
**A.** 150 to 300 nM

**Q.** For `CN(C)S(=O)(=O)c1ccc(COc2coc(CN3Cc4ccccc4C3)cc2=O)cc1` [Compound 10, 4-(((6-(Isoindolin-2-ylmethyl)-4-oxo-4H-pyran-3-yl)oxy)methyl)-N,N-di-methylbenzenesulfonamide], which IC50 is on record?
**A.** < 150 nM

**Q.** Which IC50 does the source give for `COCCNS(=O)(=O)c1ccc(COc2coc(CN3Cc4ccccc4C3)cc2=O)cc1` [Compound 11, 4-(((6-(Isoindolin-2-ylmethyl)-4-oxo-4H-pyran-3-yl)oxy)methyl)-N-(2-methoxyethyl)benzenesulfonamide] here?
**A.** < 150 nM

**Q.** How did the IC50 turn out when `CN(CCO)S(=O)(=O)c1ccc(COc2coc(CN3Cc4ccccc4C3)cc2=O)cc1` [Compound 12, N-(2-Hydroxyethyl)-4-(((6-(isoindolin-2-ylmethyl)-4-oxo-4H-pyran-3-yl)-oxy)methyl)-N-methylbenzenesulfonamide] was run?
**A.** < 150 nM

**Q.** Which IC50 does the source give for `NS(=O)(=O)c1ccc(COc2coc(CN3Cc4ccccc4C3)cc2=O)cc1` [Compound 13, 4-(((6-(Isoindolin-2-ylmethyl)-4-oxo-4H-pyran-3-yl)oxy)methyl)benzenesulfonamide] here?
**A.** 301 to 2000 nM

**Q.** How did the IC50 turn out when `CS(=O)(=O)c1ccc(COc2coc(CN3CCc4ccccc4C3)cc2=O)cc1` [Compound 14, 2-((3,4-Dihydroisoquinolin-2(1H)-yl)methyl)-5-((4-(methylsulfonyl)benzyl)oxy)-4H-pyran-4-one] was run?
**A.** 301 to 2000 nM

**Q.** How did the IC50 turn out when `O=c1cc(CN2Cc3ccccc3C2)occ1OCc1ccc(S(=O)(=O)NCCO)cc1` [Compound 15, N-(2-Hydroxyethyl)-4-(((6-(isoindolin-2-ylmethyl)-4-oxo-4H-pyran-3-yl)-oxy)methyl)benzenesulfonamide] was run?
**A.** < 150 nM

**Q.** For `CS(=O)(=O)c1ccc(COc2coc(CN3Cc4ccccc4C3)cc2=O)c(Cl)c1` [Compound 16, 5-((2-Chloro-4-(methylsulfonyl)benzyl)oxy)-2-(isoindolin-2-ylmethyl)-4H-pyran-4-one], which IC50 is on record?
**A.** 301 to 2000 nM

**Q.** How did the IC50 turn out when `CS(=O)(=O)c1ccc(COc2coc(CN3Cc4ccccc4C3)cc2=O)cc1F` [Compound 17, 5-((3-Fluoro-4-(methylsulfonyl)benzyl)oxy)-2-(isoindolin-2-ylmethyl)-4H-pyran-4-one] was run?
**A.** 301 to 2000 nM

**Q.** Which IC50 does the source give for `CS(=O)(=O)c1ccc(COc2coc(CN3CCc4ccccc4C3)cc2=O)c(Cl)c1` [Compound 18, 5-((2-Chloro-4-(methylsulfonyl)benzyl)oxy)-2-((3,4-dihydroisoquinolin-2(1H)-yl)methyl)-4H-pyran-4-one] here?
**A.** 301 to 2000 nM

**Q.** With `CS(=O)(=O)c1ccc(COc2coc(CN3Cc4ccccc4C3)cc2=O)c(C(F)(F)F)c1` [Compound 19, 2-(Isoindolin-2-ylmethyl)-5-((4-(methylsulfonyl)-2-(trifluoromethyl)benzyl)oxy)-4H-pyran-4-one] as the compound, how does the IC50 read?
**A.** 301 to 2000 nM

**Q.** How did the IC50 turn out when `COCCN(C)S(=O)(=O)c1ccc(COc2coc(CN3Cc4ccccc4C3)cc2=O)cc1` [Compound 20, 4-(((6-(Isoindolin-2-ylmethyl)-4-oxo-4H-pyran-3-yl)oxy)methyl)-N-(2-methoxyethyl)-N-methylbenzenesulfonamide] was run?
**A.** 150 to 300 nM

**Q.** `CCN(CCO)S(=O)(=O)c1ccc(COc2coc(CN3Cc4ccccc4C3)cc2=O)cc1` [Compound 21, N-Ethyl-N-(2-hydroxyethyl)-4-(((6-(isoindolin-2-ylmethyl)-4-oxo-4H-pyran-3-yl)oxy)methyl)benzenesulfonamide] was tested. Which IC50 did it give?
**A.** < 150 nM

**Q.** `O=c1cc(CN2Cc3ccccc3C2)occ1OCc1ccc(S(=O)(=O)C(F)F)cc1` [Compound 22, 5-((4-((Difluoromethyl)sulfonyl)benzyl)oxy)-2-(isoindolin-2-ylmethyl)-4H-pyran-4-one] was tested. Which IC50 did it give?
**A.** < 150 nM

**Q.** `CN(CCC#N)S(=O)(=O)c1ccc(COc2coc(CN3Cc4ccccc4C3)cc2=O)cc1` [Compound 23, N-(2-Cyanoethyl)-4-(((6-(isoindolin-2-ylmethyl)-4-oxo-4H-pyran-3-yl)oxy)-methyl)-N-methylbenzenesulfonamide] was tested. Which IC50 did it give?
**A.** < 150 nM

**Q.** With `CCS(=O)(=O)c1ccc(COc2coc(CN3Cc4ccccc4C3)cc2=O)cc1` [Compound 24, 5-((4-(Ethylsulfonyl)benzyl)oxy)-2-(isoindolin-2-ylmethyl)-4H-pyran-4-one] as the compound, how does the IC50 read?
**A.** 150 to 300 nM

**Q.** `CC(C)S(=O)(=O)c1ccc(COc2coc(CN3Cc4ccccc4C3)cc2=O)cc1` [Compound 25, 2-(Isoindolin-2-ylmethyl)-5-((4-(isopropylsulfonyl)benzyl)oxy)-4H-pyran-4-one] was tested. Which IC50 did it give?
**A.** 150 to 300 nM

**Q.** Which IC50 does the source give for `CS(=O)(=O)c1ccc(COc2coc(CN3Cc4cc(F)c(F)cc4C3)cc2=O)cc1` [Compound 26, 2-((5,6-Difluoroisoindolin-2-yl)methyl)-5-((4-(methylsulfonyl)benzyl)oxy)-4H-pyran-4-one] here?
**A.** 150 to 300 nM

**Q.** With `CS(=O)(=O)c1ccc(COc2coc(CN3Cc4cccc(F)c4C3)cc2=O)cc1` [Compound 27, 2-((4-Fluoroisoindolin-2-yl)methyl)-5-((4-(methylsulfonyl)benzyl)oxy)-4H-pyran-4-one] as the compound, how does the IC50 read?
**A.** 301 to 2000 nM

**Q.** How did the IC50 turn out when `COCCS(=O)(=O)c1ccc(COc2coc(CN3Cc4ccccc4C3)cc2=O)cc1` [Compound 28, 2-(Isoindolin-2-ylmethyl)-5-((4-((2-methoxyethyl)sulfonyl)benzyl)oxy)-4H-pyran-4-one] was run?
**A.** 150 to 300 nM

**Q.** For `COCCS(=O)(=O)c1ccc(COc2coc(CN3Cc4ccc(F)cc4C3)cc2=O)cc1` [Compound 29, 2-((5-Fluoroisoindolin-2-yl)methyl)-5-((4-((2-methoxyethyl)sulfonyl)benzyl)oxy)-4H-pyran-4-one], which IC50 is on record?
**A.** 150 to 300 nM
